Measurements taken from publication PMC7248897, “Synthesis, Biological Evaluation and In Silico Studies of Certain Oxindole–Indole Conjugates as Anticancer CDK Inhibitors” (Molecules, 2020).

Tests used:
[1] = test system: MCF-7 breast cancer cell line; assay: SRB anti-proliferative assay, MCF-7; format: cell-based, human; conditions: for IC50: Homo sapiens, MCF7, SRB assay, 48 h, mean ± S.D. from 3 separate experiments, read-out: IC50 MCF-7; for fold enhancement of anti-proliferative activity compared to 6a: MCF-7, ratio of IC50 values
Experimental: (§1) Cytotoxicity was assessed following the SRB colorimetric assay protocol, as reported earlier.
(§2) 1. Anti-proliferative action toward human breast cell lines […]
(§3) have been obtained from American Type Culture Collection (ATCC). The cells were maintained in Dulbecco's modified Eagle's medium (DMEM) supplemented with 10% heat inactivated fetal calf serum (GIBCO), penicillin (100 U/ml) and streptomycin (100 µg/ml) at 37 °C in humidified atmosphere containing 5% CO2. Cells at a concentration of […]
(§4) The anti-proliferative activity of the tested hybrids 6a-i, 9a-f and 11a, b was measured in vitro using the Sulfo-Rhodamine-B stain (SRB) assay. Briefly, Cells were inoculated in 96-well microtiter plate (5X104 cells/ well) for 24 h before treatment with the tested compounds to allow attachment of cell to the wall of the plate. Tested compounds were dissolved in DMSO at 1 mg/ml immediately before use and diluted to the appropriate volume just before addition to the cell culture. Different concentrations of tested compounds, doxorubicin and sorafenib were added to the cells (three wells were prepared for each individual dose). Cells were incubated with the compounds for 48 h at 37°C and in atmosphere of 5% CO2. After 48 h cells were fixed, washed, and stained for 30 min with 0.4% (w/v) SRB dissolved in 1% acetic acid. Unbound dye was removed by four washes with 1% acetic acid, and attached stain was recovered with Tris-EDTA buffer.
(§5) Color intensity was measured in an ELISA reader. […]

[2] = test system: MDA-MB-231 breast cancer cell line; assay: SRB anti-proliferative assay, MDA-MB-231; format: cell-based, human; conditions: for IC50: Homo sapiens, MDA-MB-231, SRB assay, 48 h, mean ± S.D. from 3 separate experiments, read-out: IC50 MDA-MB-231
Experimental: as §1, §2, §3, §4, §5

MCF-7 cells [3] = assay: Cell cycle analysis by flow cytometry (PI); format: cell-based, human; conditions: for fold elevation in sub-G1 phase / fold increase of cells in G2/M phase: MCF-7, in comparison to the control (DMSO); for %Sub-G1 / %G2/M / %S / %G0–G1: MCF-7 cells treated at IC50, 24 h; for %Sub-G1: control 1.37; for %G2/M: control 14.73; for %S: control 27.45; for %G0–G1: control 56.45
Experimental: Most of the cytotoxic agents wield their anti-proliferative effect by arresting the cell cycle at some checkpoints. Cell cycle analysis employs flow cytometry to distinguish cells within the different cell cycle phases. […] MCF-7 cells were treated by the IC50 of the two conjugates and their impact on the cell population was recorded. […] This was accompanied by discernible escalation in the proportion of cells in the G2/M phase by 2.80- and 2.46-fold with concomitant elevation in the sub-G1 phase by 17.8 and 16.25-fold, respectively, in comparison to the control (DMSO). […]
as §3, with “The two examined human breast cancer cell lines (MCF-7 and Breast MDA-MB-231) have” for “have”, “of 0.50 x 106 were grown in a 25 cm2 flask in 5 ml of culture medium.” for “of”
Breast cancer MCF-7 cells were treated with hybrids 6e and 6f for 24 h (at their IC50 concentration), and then cells were washed twice with ice-cold phosphate buffered saline (PBS). Subsequently, the treated cells were collected by centrifugation, fixed in ice-cold 70% (v/v) ethanol, washed with PBS, re-suspended with 100 μg/mL RNase, stained with 40 μg/mL PI, and analyzed by flow cytometry using FACS Calibur (Becton Dickinson, BD, Franklin Lakes, NJ, USA). The cell cycle distributions were calculated using CellQuest software 5.1 (Becton Dickinson).

MCF-7 cells [4] = assay: Annexin V-FITC apoptosis assay; format: cell-based, human; conditions: for fold increase of entire apoptosis percentage: MCF-7, in comparison to the control (DMSO); for percent of Anx V-FITC positive cells (entire apoptosis): MCF-7 cells treated at IC50
Experimental: Anx V-based flow cytometry assay represents a helpful tactic for determining whether death of cells is attributed to programmed apoptosis or to uncontrolled necrosis.
This clearly verifies that cell death resulting from the anti-proliferative action of the target hybrids was attributable to physiological apoptosis and not to nonspecific necrosis.
Assessment of the levels for the proapoptotic markers (Bax, caspase-3, and p53) as well as the antiapoptotic marker (Bcl-2) was carried out through the use of ELISA colorimetric kits in accordance with the manufacturer’s instructions, as mentioned earlier. In addition, the pro-apoptotic potential of indoles 6e and 6f towards MCF-7 cells was evaluated through an FITC Annexin V apoptosis detection kit by flow cytometry, in accordance with the manufacturer’s protocol and referring to the reported procedures. […]
4. Annexin V-FITC Apoptosis Assay
Phosphatidylserine externalization was assayed using Annexin V-FITC/PI apoptosis detection kit (BD Biosciences, USA) according to the manufacturer’s instructions. Breast cancer MCF-7 cells were cultured to a monolayer then treated with hybrids 6e and 6f at their IC50 concentration. Briefly, cells were then harvested via trypsinization, and rinsed twice in PBS followed by binding buffer. Moreover, cells were re-suspended in 100 μL of binding buffer with the addition of 1 μL of FITC-Annexin V followed by an incubation period of 30 min at 4 °C. Cells were then rinsed in binding buffer and resuspended in 150 μL of binding buffer with the addition of 1 μL of DAPI (1 μg/μL in PBS). Cells were then analyzed using the flow cytometer BD FACS Canto II and the results were interpreted with FlowJo7.6.4 software (Tree Star, Ashland, OR, USA).

CDK2 = target: T1, CDK2 (Homo sapiens, UniProt P24941); assay: CDK2 kinase inhibition (Reaction Biology HotSpot); format: biochemical; conditions: single dose of 20 µM; read-out: % Enzyme Inhibitory Activity CDK2
T1 construct: purchased Reaction Biology Corp. (Kinase HotSpot service)
Description: 5. CDK Kinase Inhibitory Activity
along with required cofactors.
Kinase activity data were
(dimethyl sulfoxide) reactions.

Row | Compound | IC50 [1] [nM] | fold enhancement of anti-proliferative activity compared to 6a [1] [fold] | IC50 [2] [nM] | fold potency compared to staurosporine ([2]; MDA-MB-231, ratio of IC50 values) [fold] | fold elevation in sub-G1 phase (MCF-7 cells [3]) [fold] | fold increase of cells in G2/M phase (MCF-7 cells [3]) [fold] | %Sub-G1 (MCF-7 cells [3]) [%] | %G2/M (MCF-7 cells [3]) [%] | %S (MCF-7 cells [3]) [%] | %G0–G1 (MCF-7 cells [3]) [%] | fold increase of entire apoptosis percentage (MCF-7 cells [4]) [fold] | percent of Anx V-FITC positive cells (entire apoptosis) (MCF-7 cells [4]) [%] | inhibition at 20 µM (CDK2) [%]
1 | COc1ccc2c(c1)/C(=N/NC(=O)c1cc3ccccc3[nH]1)C(=O)N2 [6f] | 1850 ± 80 | 1.7 | 2850 ± 900 | 3.6 | 16.25 | 2.46 | 22.26 | 36.26 | 19.29 | 22.19 | 28.60 | 25.17 | ≥ 50
2 | Cc1ccc2c(c1)/C(=N/NC(=O)c1cc3ccccc3[nH]1)C(=O)N2 [6e] | 390 ± 50 | 8 | 22500 ± 1670 |  | 17.8 | 2.80 | 24.49 | 41.47 | 14.81 | 19.23 | 33.75 | 29.7 | ≥ 50
